Measured values published in paper PMC4501791, “Molecular Design, Synthesis and Trypanocidal Activity of Dipeptidyl Nitriles as Cruzain Inhibitors” (PLoS Neglected Tropical Diseases, 2015).

How the values were obtained:
[1] = tested on: T. cruzi Tulahuen strain amastigotes; assay: Trypanocidal activity against amastigote forms in LLCMK2 cells, Tulahuen strain; assay type: cell-based; conditions: T. cruzi Tulahuen strain; for EC50 / killing at 32 µM: Trypanosoma cruzi; for EC50: LLC-MK2, read-out: pEC50 ama Tula (converted); for EC50 / pEC50 ama Tula: amastigote; for killing at 32 µM: LLC-MK2, 120 h, read-out: %cell lysis at 32 μM ama Tula; for killing at 32 µM / %cell lysis at 32 μM ama Tula: amastigote lysis, 5 days
Experimental: (§1) The assays against amastigote forms were performed in LLCMK2 cells. Previously, the cells were cultivated in 96-wells microplates (10^3 cells/well). […] After this, the microplates were incubated at 37°C, in CO2 atmosphere, for 5 days. Then, 10 μL of FluoReporter lacZ/Galactosidase Quantitative Kit (Life Technologies) were added and after 30 minutes the fluorometric reaction was read in a microplate reader (Synergy H1, Biotek) at 386 nm excitation and 448 nm emission. For both assays the percentage of parasite lysis was determined from the following formula: %lysis = 100 –{[(X-PC)/(PC-NC)]x100}, where the optical density values of the samples (X), the positive controls (PC) and negative controls (NC) were used. Culture medium was used as positive control (PC) and medium with 0.6% DMSO (v/v) as negative control (NC). All assays were performed in triplicate with two independent experiments.

[2] = biological target: T1, cruzain (Trypanosoma cruzi, UniProt P25779); assay: biochemical; conditions: 37°C, pH 5.5, substrate Z-FR-AMC
T1 construct: made in house
T1 sequence (P25779 123-337 limits assumed): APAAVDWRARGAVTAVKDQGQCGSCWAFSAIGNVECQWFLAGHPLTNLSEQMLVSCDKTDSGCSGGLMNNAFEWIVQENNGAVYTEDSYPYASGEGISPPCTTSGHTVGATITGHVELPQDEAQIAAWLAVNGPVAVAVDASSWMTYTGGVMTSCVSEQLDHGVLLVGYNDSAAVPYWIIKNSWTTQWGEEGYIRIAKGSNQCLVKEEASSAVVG
Experimental: Enzyme kinetic assays were carried out at 37°C in 200 L of a solution containing 100 mM acetate buffer pH 5.5, 300 mM NaCl, 5 mM DTT (dithiothreitol), 5% v/v DMSO (dimethyl sulfoxide), 0.01% v/v Triton X-100 and 0.15 nM cruzain, using Corning® 96-well black flat bottom microplates. The rate of the reaction was monitored using a Biotek Synergy HT plate reader through the fluorescence emission at 460 nm (excitation at 355 nm) due to the hydrolysis of the substrate Z-Phe-Arg-7-amido-4-methylcoumarin (Z-FR-AMC, Sigma-Aldrich). The enzyme stock aliquot was rapidly thawed at 37°C and kept on ice until activation, in which it was incubated for 20 min. in the assay buffer (100 mM acetate pH 5.5 and 5 mM DTT) followed by additional 2 min. incubation with inhibitors before the reaction was started by the addition of the substrate.
Visual inspection and a pre-reading of plate wells were performed to check for possible precipitation and background fluorescence, respectively. Fluorescence emission spectra were also recorded for all inhibitors, using the same excitation wavelength (355 nm) as for the fluorometric assay. […] The reaction was started by the addition of varying concentrations of the substrate and the wells monitored for a total of 5 minutes of reaction. The initial velocities of the substrate hydrolysis under first-order reaction were calculated by Gen5 Biotek software based on the linear-regression coefficient from the fit to data of Relative Fluorescence Unit (mRFU) as a function of time (min).
Each experiment was performed in duplicates for each compound being tested. […] All inhibitors were evaluated in two different concentrations, which were chosen based on a previous screening (percentage of inhibition) at 1.7 μM substrate (~K M). […] SigmaPlot (v. 10.0) was employed for the non-linear fit and the kinetic parameters determination.

[3] = biological target: T1, cruzain; assay: Reversibility assay: recovery of cruzain activity after rapid large dilution; assay type: biochemical; conditions: 4.5 μM compound incubated with 15 nM cruzain for 30 min, diluted 100-fold
Experimental: The progress curve for this sample was then measured and compared to that of a similar sample of enzyme incubated and diluted in the absence of inhibitor. The irreversible inhibitor E-64 (CAS 66701-25-5, Sigma Aldrich) was used as reference.

[4] = tested on: T. cruzi CL-Brener strain amastigotes; assay: Trypanocidal activity against amastigote forms in LLCMK2 cells, CL-Brener strain; assay type: cell-based; conditions: 5 days; for killing at 32 µM: Trypanosoma cruzi, LLC-MK2, 120 h, amastigote lysis, read-out: %cell lysis at 32 μM ama Brener
Experimental: as §1

[5] = tested on: LLCMK2 cells; assay: Lysis of LLCMK2 host cells; assay type: cell-based; conditions: for cytotoxicity at 32 µM: Macaca mulatta, LLC-MK2, 32 μM, read-out: %cell lysis at 32 μM LLCMK2
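Wherever pKi is given: fluorometric read-out of substrate hydrolysis at excitation 355 nm and emission 460 nm, initial rates over 5 min, Ki from nonlinear kinetic fits, duplicate runs.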

Row | SMILES | EC50 [1] | Ki [2] | killing at 32 µM [1] | killing at 32 µM [4] | melting point | cytotoxicity at 32 µM [5] | further results
1 | N#CCNC(=O)[C@H](Cc1ccccc1)NC(=O)c1ccccc1 [Compound 5, (2S)-N-(cyanomethyl)-3-phenyl-2-(phenylformamido)propanamide] | 126 µM | 0.501 µM | – | – | – | – | reversibility of inhibition [3]: reversible
2 | N#CC1(NC(=O)[C@H](Cc2ccccc2)NC(=O)c2ccccc2)CC1 [Compound 7, (2S)-N-(1-cyanocyclopropyl)-3-phenyl-2-(phenylformamido)propanamide] | 126 µM | 0.251 µM | 16 ± 10% | – | – | – | –
3 | CC(C)(C#N)NC(=O)[C@H](Cc1ccccc1)NC(=O)c1ccccc1 [Compound 8, (2S)-N-(1-cyano-1-methylethyl)-3-phenyl-2-(phenylformamido)propanamide] | – | 3.16 µM | – | – | – | – | –
4 | N#CCNC(=O)[C@H](Cc1cccc(Cl)c1)NC(=O)c1ccccc1 [Compound 9, (2S)-3-(3-chlorophenyl)-N-(cyanomethyl)-2-(phenylformamido)propanamide] | 100 µM | 0.251 µM | 17 ± 2% | 24 ± 1% | 176 to 178 °C | 12 ± 1% | –
5 | N#CCNC(=O)[C@H](Cc1ccc(O)cc1)NC(=O)c1ccccc1 [Compound 10, (2S)-N-(cyanomethyl)-3-(4-hydroxyphenyl)-2-(phenylformamido)propanamide] | 200 µM | 0.2 µM | 32 ± 4% | 18 ± 1% | 209 to 210 °C | 18 ± 3% | –
6 | N#CCNC(=O)[C@H](Cc1ccc(OC(=O)c2ccccc2)cc1)NC(=O)c1ccccc1 [Compound 11, 4-[(2S)-2-[(cyanomethyl)carbamoyl]-2-(phenylformamido)ethyl]phenyl benzoate] | > 316 µM | 1.26 µM | 16 ± 6% | 17 ± 1% | 254 to 256 °C | 8 ± 5% | –
7 | N#CCNC(=O)[C@H](CCCNC(=N)N)NC(=O)c1ccccc1 [Compound 13, (2S)-5-carbamimidamido-N-(cyanomethyl)-2-(phenylformamido)pentanamide] | – | 126 µM | – | – | 117 to 118 °C | – | –
8 | N#CCNC(=O)C1(NC(=O)c2ccccc2)CCCC1 [Compound 14, N-(1-[(cyanomethyl)carbamoyl]cyclopentyl)benzamide] | 200 µM | 7.94 µM | 25 ± 4% | 9 ± 1% | 165 to 166 °C | 18 ± 1% | –
9 | N#CCNC(=O)[C@H](Cc1ccccc1)NC(=O)C(F)(F)F [Compound 15, (2S)-N-(cyanomethyl)-3-phenyl-2-(trifluoroacetamido)propanamide] | – | 3.98 µM | – | – | – | – | –
10 | N#CCNC(=O)[C@H](Cc1ccccc1)NC(=O)c1cccs1 [Compound 16, (2S)-N-(cyanomethyl)-3-phenyl-2-(thiophen-2-ylformamido)propanamide] | 63.1 µM | 0.794 µM | 30 ± 11% | 24 ± 2% | – | 19 ± 4% | –
11 | N#CCNC(=O)[C@H](Cc1ccccc1)NC(=O)c1ccco1 [Compound 17, (2S)-N-(cyanomethyl)-2-(furan-2-ylformamido)-3-phenylpropanamide] | 100 µM | 0.501 µM | 36 ± 1% | 21 ± 2% | 176 to 179 °C | 24 ± 0.2% | –
12 | N#CCNC(=O)[C@H](Cc1ccccc1)NC(=O)c1ccncn1 [Compound 18, (2S)-N-(cyanomethyl)-3-phenyl-2-(pyrimidin-4-ylformamido)propanamide] | 200 µM | 1.26 µM | 17 ± 2% | 18 ± 1% | 171 to 173 °C | 20 ± 1% | –
13 | N#CCNC(=O)[C@H](Cc1ccccc1)NC(=O)c1cnccn1 [Compound 19, (2S)-N-(cyanomethyl)-3-phenyl-2-(pyrazin-2-ylformamido)propanamide] | 79.4 µM | 1.58 µM | 22 ± 7% | 21 ± 8% | – | 14 ± 1% | –
14 | N#CCNC(=O)[C@H](Cc1ccccc1)NC(=O)c1cncc(Br)c1 [Compound 20, (2S)-2-[(5-bromopyridin-3-yl)formamido]-N-(cyanomethyl)-3-phenylpropanamide] | – | 0.251 µM | 0% | 25 ± 8% | – | 17 ± 1% | –
15 | Cn1nc(C(C)(C)C)cc1C(=O)N[C@@H](Cc1ccccc1)C(=O)NCC#N [Compound 21, (2S)-2-[(3-tert-butyl-1-methyl-1H-pyrazol-5-yl)formamido]-N-(cyanomethyl)-3-phenylpropanamide] | – | 0.0631 µM | – | – | 160 to 162 °C | – | –
16 | Cn1nc(C(F)(F)F)cc1C(=O)N[C@@H](Cc1ccccc1)C(=O)NCC#N [Compound 22] | – | – | – | – | – | – | %cell lysis at 32 μM ama Tula [1]: 48 ± 4%; pEC50 ama Tula [1]: 4.0; pKi [2]: 6.3; %cell lysis at 32 μM ama Brener [4]: 20 ± 2%; %cell lysis at 32 μM LLCMK2 [5]: 19 ± 0.4%
17 | N#CCNC(=O)[C@H](Cc1ccccc1)NC(=O)c1cc(=O)[nH]c(=O)[nH]1 [Compound 23, (2S)-N-(cyanomethyl)-2-[(2,6-dioxo-1,2,3,6-tetrahydropyrimidin-4-yl)formamido]-3-phenyl propanamide] | – | – | – | – | – | – | %cell lysis at 32 μM ama Tula [1]: 0%; pKi [2]: 5.9; %cell lysis at 32 μM ama Brener [4]: 27 ± 1%; %cell lysis at 32 μM LLCMK2 [5]: 22 ± 5%
18 | N#CCNC(=O)[C@H](Cc1ccccc1)NC(=O)OCc1ccccc1 [Compound 24, Benzyl N-[(1S)-1-[(cyanomethyl)carbamoyl]-2-phenylethyl]carbamate] | – | 0.501 µM | – | – | – | – | –
19 | CC(C)(C)OC(=O)N[C@@H](Cc1ccccc1)C(=O)NCC#N [Compound 25, Tert-butyl-N-[(1S)-1-[(cyanomethyl)carbamoyl]-2-phenylethyl]carbamete] | – | – | – | – | – | – | %cell lysis at 32 μM ama Tula [1]: 37 ± 1%; pEC50 ama Tula [1]: 4.1; pKi [2]: 5.6; %cell lysis at 32 μM ama Brener [4]: 23 ± 2%; %cell lysis at 32 μM LLCMK2 [5]: 31 ± 2%
20 | CC(C)C[C@H](NC(=O)OC(C)(C)C)C(=O)NCC#N [Compound 27, tert-butyl N-[(1S)-1-[(cyanomethyl)carbamoyl]-3-methylbutyl]carbamate] | – | 1.26 µM | 0% | 19 ± 3% | – | 0% | –
21 | CC(C)C[C@H](NC(=O)c1cc(C(C)(C)C)nn1C)C(=O)NCC#N [Compound 29, (2S)-2-[(3-tert-butyl-1-methyl-1H-pyrazol-5-yl)formamido]-N-(cyanomethyl)-4 methylpentanamide] | – | 0.0631 µM | 17 ± 4% | 10 ± 1% | 179 to 180 °C | 27 ± 18% | –
22 | CC(C)C[C@H](NC(=O)c1cc(C(C)(C)C)nn1C)C(=O)NC1(C#N)CC1 [Compound 30, (2S)-2-[(3-tert-butyl-1-methyl-1H-pyrazol-5-yl)formamido]-N-(1-cyanocyclopropyl)-4-methylpentanamide] | – | 0.0251 µM | – | 11 ± 6% | – | – | –
23 | CC(C)C[C@H](NC(=O)OC(C)(C)C)C(=O)NC1(C#N)CC1 [Compound 31, tert-butyl N-[(1S)-1-[(1-cyanocyclopropyl)carbamoyl]-3-methylbutyl]carbamate] | – | 0.631 µM | – | – | – | – | –
24 | CC(C)(C)C[C@H](NC(=O)c1ccccc1)C(=O)NC1(C#N)CC1 [Compound 32, (2S)-N-(1-cyanocyclopropyl)-4,4-dimethyl-2-(phenylformamido)pentanamide] | – | 25.1 µM | – | – | 186 to 187 °C | – | –
25 | Cn1nc(C(F)(F)F)cc1C(=O)N[C@@H](Cc1ccccc1)C(=O)NC1(C#N)CC1 [Compound 33, (2S)-N-(1-cyanocyclopropyl)-2-{[1-methyl-3-(trifluoromethyl)-1H-pyrazol-5-yl]formamido}-3-phenylpropanamide] | – | 0.398 µM | – | 22 ± 10% | 211 to 212 °C | – | –
26 | Cn1nc(C(C)(C)C)cc1C(=O)N[C@@H](Cc1ccccc1)C(=O)NC1(C#N)CC1 [Compound 34, (2S)-2-[(5-tert-butyl-2-methylpyrazol-3-yl)formamido]-N-(1-cyanocyclopropyl)-3-phenylpropanamide] | – | 0.0631 µM | 0% | 23 ± 3% | – | 17 ± 3% | –
27 | N#CC1(NC(=O)[C@H](Cc2ccccc2)NC(=O)c2cnccn2)CC1 [Compound 35, (2S)-N-(1-cyanocyclopropyl)-3-phenyl-2-(pyrazin-2-ylformamido)propanamide] | – | 0.501 µM | – | – | 162 to 164 °C | – | –
28 | N#Cc1cccc(C[C@H](NC(=O)c2ccccc2)C(=O)NC2(C#N)CC2)c1 [Compound 36, (2S)-N-(1-cyanocyclopropyl)-3-(3-cyanophenyl)-2-(phenylformamido)propanamide] | – | 3.98 µM | – | – | 191 to 194 °C | – | –
29 | N#CC1(NC(=O)C2(NC(=O)c3ccccc3)CCCC2)CC1 [Compound 37] | – | – | – | – | – | – | %cell lysis at 32 μM ama Tula [1]: 34 ± 5%; pEC50 ama Tula [1]: 4.1; pKi [2]: 4.9; %cell lysis at 32 μM ama Brener [4]: 8 ± 3%; %cell lysis at 32 μM LLCMK2 [5]: 26 ± 3%
